{
  "source": "patent US7629471B2",
  "about": "“Transcriptional factor, process for producing the same and use thereof” (NRL Pharma, Inc., priority 2003, dated 2009)",
  "key": {"Ras farnesylation": {"tested_on": "Ras farnesylation", "settings": "cited from earlier work"}, "animal virus": {"tested_on": "animal virus", "settings": "without affecting nucleic acid and protein biosynthesis; cited from earlier work"}, "rodents [1]": {"tested_on": "rodents", "settings": "rodents (mice, rats); cited from earlier work"}, "[2]": {"tested_on": "mice starved for a 48-hour period", "settings": "trace amount by oral route 2 hours before feed intake; 2-hour intake time; mice starved 48 hours; cited from earlier work"}, "[3]": {"tested_on": "arthritis in rats induced by adjuvant injection", "settings": "adjuvant injection into footpads; cited from earlier work"}, "[4]": {"settings": "cited from earlier work"}, "Male ICR mice": {"tested_on": "Male ICR mice", "assay": "Effect on serum total cholesterol: in-feed vs forced oral administration (Table 1)", "format": "in vivo", "settings": "1 week, n = 6, tested in triplicate", "description": "In contrast, the solubility of Compound-1 in water is as extremely low as about 0.7 g/l; Compounds-1 and -2 are poles apart in terms of solubility in water. […] However, even when both compounds are simply mixed in a mechanical manner into feed in an amount of 0.1% or even when both compounds are given for forced oral administration in the same drug amount calculated from feed intake, there is no reproducibility in their efficacy unlike the case where their acetone solutions are sprayed over feed."}, "db/db mice": {"tested_on": "db/db mice", "assay": "Urinary sugar excretion in db/db mice: in-feed vs forced oral administration (Table 1)", "format": "in vivo", "settings": "for % Reduction of urinary sugar excretion: n = 4, tested in triplicate"}, "hypertensive rat models": {"tested_on": "hypertensive rat models", "settings": "cited from earlier work"}, "ICR male mice": {"tested_on": "ICR male mice", "format": "in vivo", "settings": "added at 0.1% to feed, 1 week; control group 143", "description": "Fifty ICR male mice (5 weeks of age) were randomly divided into 5 groups of 10 animals each and housed in polycarbonate cages at 5 animals per cage. […] […] After 1 week, the blood was collected from the heart of each mouse to determine the level of serum total cholesterol by an enzymatic method."}, "C57BL/ksj db/db mice": {"tested_on": "C57BL/ksj db/db mice", "assay": "Effect on genetically obese diabetic mice: urinary sugar excretion (Example 6)", "format": "in vivo", "description": "A solution of Compound-16 (1 g) in acetone (about 50 ml) was sprinkled over and mixed well with 1 kg of rodent standard feed (CE-2, CLEA Japan, Inc., Japan), followed by air-drying in a chamber. The content of Compound-16 in this feed was about 0.1%. In the same manner, pellet chow samples containing 0.05% to 0.025% of Compound-16 were prepared and used for the experiment. To prepare control feed, the same powder feed was sprinkled with acetone and palletized. Twenty male db/db mice (8 weeks of age after birth) were randomly divided into 4 groups. Each group was housed in a cage for urine collection and fed with the Compound-16-containing feed or the control feed for 21 days. During the housing, the mice were allowed to take feed and water ad libitum and their urine was collected at the intervals indicated in Table 1 to determine urinary sugar excretion by an enzymatic method. The level of urinary sugar excretion was expressed as the mean per animal."}, "rodents [5]": {"tested_on": "rodents", "settings": "cited from earlier work"}, "aromatase": {"target": "T1, aromatase (Homo sapiens, UniProt P11511)", "T1 sequence (P11511 1-503)": "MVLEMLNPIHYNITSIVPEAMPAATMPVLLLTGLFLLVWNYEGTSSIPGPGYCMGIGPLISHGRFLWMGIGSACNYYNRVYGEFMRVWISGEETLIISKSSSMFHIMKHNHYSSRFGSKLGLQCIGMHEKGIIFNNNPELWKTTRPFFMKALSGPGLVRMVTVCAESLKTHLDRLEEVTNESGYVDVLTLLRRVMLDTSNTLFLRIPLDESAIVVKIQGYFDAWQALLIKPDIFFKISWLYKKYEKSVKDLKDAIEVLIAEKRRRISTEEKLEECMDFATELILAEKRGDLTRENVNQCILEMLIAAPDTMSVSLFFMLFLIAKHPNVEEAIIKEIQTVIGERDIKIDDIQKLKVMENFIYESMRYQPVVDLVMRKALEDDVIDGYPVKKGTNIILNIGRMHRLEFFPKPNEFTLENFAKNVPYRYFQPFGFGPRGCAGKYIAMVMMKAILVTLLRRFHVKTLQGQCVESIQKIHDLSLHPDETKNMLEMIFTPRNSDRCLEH", "settings": "cited from earlier work"}, "[6]": {"settings": "Mechanical mixing into feed, 0.1%"}, "[7]": {"settings": "Spraying of acetone solution over feed, 0.1% in feed"}},
  "note": "“And” between values parts separate entries of the source, which are not always exact repeats. Equal entries are not always repeated. Where two headings read alike, the source gives them in different places. Marks after values point to notes of the source that are not given here.",
  "data": [
    {"smiles": "CC(C=C[C@]1(C)[C@H](C)C(=O)CC[C@@H]1C)=CCc1c(O)c(Cl)c(C)c(C=O)c1O", "note": "[Ascochlorin, 3-[5-[1(R),2(S),6(S)-trimethyl-3-oxocyclohexyl]-3-methyl-2,4-pentadienyl]-2,4-dihydroxy-5-chloro-6-methylbenzaldehyde]", "values": [
      {"measurement": "Inhibition of Ras farnesylation", "setting": "Ras farnesylation", "result": "inhibited Ras farnesylation"},
      {"measurement": "Animal virus growth", "setting": "animal virus", "result": "arrests animal virus growth"},
      {"measurement": "Serum cholesterol lowering", "setting": "rodents [1]", "result": "effect of lowering serum cholesterol"},
      {"measurement": "Anorectic effect (feed intake)", "setting": "[2]", "result": "half inhibition of feed intake"},
      {"measurement": "Inflammatory swelling", "setting": "[3]", "result": "alleviating inflammatory swelling"},
      {"measurement": "Absorption from the digestive tract", "setting": "[4]; in vivo, po", "result": "most of them pass through the digestive tract without being absorbed"}
    ]},
    {"smiles": "COc1c(Cl)c(C)c(C=O)c(O)c1C/C=C(C)/C=C/[C@@]1(C)[C@H](C)CCC(=O)[C@@H]1C", "note": "[Compound-1, 4-O-methylascochlorin]", "values": [
      {"measurement": "Decrease in serum cholesterol levels", "setting": "Male ICR mice; Forced oral administration, same drug amount calculated from feed intake", "result": "No decrease in all three"},
      {"measurement": "Decrease in serum cholesterol levels", "setting": "Male ICR mice; [6]", "result": "No decrease in all three tests"},
      {"measurement": "Decrease in serum cholesterol levels", "setting": "Male ICR mice; [7]", "result": "15.2%-25.1% decrease, P < 0.01"},
      {"measurement": "% Reduction of urinary sugar excretion", "setting": "db/db mice; [6]", "result": "No inhibitory effect is observed"},
      {"measurement": "Progression to renal failure", "setting": "hypertensive rat models", "result": "prevent hypertensive rat models from entering renal failure"},
      {"measurement": "Absorption from the digestive tract", "setting": "[4]; orally administered to small animals (rats, mice) in the fasting state", "result": "most of them pass through the digestive tract without being absorbed"},
      {"measurement": "Solubility in water", "setting": "Solubility in water", "result": "about 0.7 g/l"},
      {"measurement": "Solubility in water (in words)", "setting": "Solubility in water", "result": "substantially insoluble in water"}
    ]},
    {"smiles": "CC(C=CC1(C)C(C)CCC(=O)C1C)=CCc1c(O)c(C=O)c(C)c(Cl)c1OCC(=O)O", "note": "(centres unmarked) [Compound-2, 4-O-carboxymethylascochlorin]", "values": [
      {"measurement": "Decrease in serum cholesterol levels", "setting": "Male ICR mice; [7]", "result": "17.5%-22.7% decrease, P < 0.01"},
      {"measurement": "Toxic death", "setting": "db/db mice; Forced oral administration, db/db mice, deaths/animals in first, second, third test", "result": "2/4 in the first test and 1/4 in the second test and 1/4 in the third test"},
      {"measurement": "% Reduction of urinary sugar excretion", "setting": "db/db mice; Forced oral administration", "result": "Not effective"},
      {"measurement": "Body weight gain", "setting": "db/db mice; Mechanical mixing into feed, db/db mice", "result": "body weight gain is inhibited."},
      {"measurement": "Amount dissolved in water", "setting": "Solubility in water; in the small intestine (pH 7.2 to 7.4)", "result": "≥ 6", "unit": "%"}
    ]},
    {"smiles": "CC(/C=C/[C@@]1(C)[C@H](C)CCC(=O)[C@@H]1C)=C\\Cc1c(O)c(Cl)c(C)c(C=NCC(N)=O)c1O", "note": "[Compound-13]", "values": [
      {"measurement": "Serum total cholesterol", "setting": "ICR male mice", "result": "112** mg/dl"}
    ]},
    {"smiles": "CC(=O)N[C@@H](CCCCN=Cc1c(C)c(Cl)c(O)c(C/C=C(C)/C=C/[C@@]2(C)[C@H](C)CCC(=O)[C@@H]2C)c1O)C(=O)O", "note": "[Compound-16]", "values": [
      {"measurement": "Level of urinary sugar excretion", "setting": "C57BL/ksj db/db mice; 0.025% in feed, 0 days (24 h urine beginning 1 day before initiation, baseline)", "result": 890, "unit": "mg/mouse/day"},
      {"measurement": "Level of urinary sugar excretion", "setting": "C57BL/ksj db/db mice; 0.025% in feed, 1 day", "result": 600, "unit": "mg/mouse/day"},
      {"measurement": "Level of urinary sugar excretion", "setting": "C57BL/ksj db/db mice; 0.025% in feed, 3 days", "result": 452, "unit": "mg/mouse/day"},
      {"measurement": "Level of urinary sugar excretion", "setting": "C57BL/ksj db/db mice; 0.025% in feed, 7 days", "result": 175, "unit": "mg/mouse/day"},
      {"measurement": "Level of urinary sugar excretion", "setting": "C57BL/ksj db/db mice; 0.025% in feed, 14 days", "result": 201, "unit": "mg/mouse/day"},
      {"measurement": "Level of urinary sugar excretion", "setting": "C57BL/ksj db/db mice; 0.025% in feed, 21 days", "result": 134, "unit": "mg/mouse/day"},
      {"measurement": "Level of urinary sugar excretion", "setting": "C57BL/ksj db/db mice; 0.05% in feed, 0 days (24 h urine beginning 1 day before initiation, baseline)", "result": 786, "unit": "mg/mouse/day"},
      {"measurement": "Level of urinary sugar excretion", "setting": "C57BL/ksj db/db mice; 0.05% in feed, 1 day", "result": 541, "unit": "mg/mouse/day"},
      {"measurement": "Level of urinary sugar excretion", "setting": "C57BL/ksj db/db mice; 0.05% in feed, 3 days", "result": 231, "unit": "mg/mouse/day"},
      {"measurement": "Level of urinary sugar excretion", "setting": "C57BL/ksj db/db mice; 0.05% in feed, 7 days", "result": 253, "unit": "mg/mouse/day"},
      {"measurement": "Level of urinary sugar excretion", "setting": "C57BL/ksj db/db mice; 0.05% in feed, 14 days", "result": 170, "unit": "mg/mouse/day"},
      {"measurement": "Level of urinary sugar excretion", "setting": "C57BL/ksj db/db mice; 0.05% in feed, 21 days", "result": 52, "unit": "mg/mouse/day"},
      {"measurement": "Level of urinary sugar excretion", "setting": "C57BL/ksj db/db mice; 0.1% in feed, 0 days (24 h urine beginning 1 day before initiation, baseline)", "result": 814, "unit": "mg/mouse/day"},
      {"measurement": "Level of urinary sugar excretion", "setting": "C57BL/ksj db/db mice; 0.1% in feed, 1 day", "result": 187, "unit": "mg/mouse/day"},
      {"measurement": "Level of urinary sugar excretion", "setting": "C57BL/ksj db/db mice; 0.1% in feed, 3 days", "result": 30, "unit": "mg/mouse/day"},
      {"measurement": "Level of urinary sugar excretion", "setting": "C57BL/ksj db/db mice; 0.1% in feed, 7 days", "result": 15, "unit": "mg/mouse/day"},
      {"measurement": "Level of urinary sugar excretion", "setting": "C57BL/ksj db/db mice; 0.1% in feed, 14 days", "result": 10, "unit": "mg/mouse/day"},
      {"measurement": "Level of urinary sugar excretion", "setting": "C57BL/ksj db/db mice; 0.1% in feed, 21 days", "result": 10, "unit": "mg/mouse/day"}
    ]},
    {"smiles": "CC(=O)N[C@@H](CCCCN=Cc1c(C)c(Cl)c(OCC(=O)O)c(C/C=C(C)/C=C/[C@@]2(C)[C@H](C)CCC(=O)[C@@H]2C)c1O)C(=O)O", "note": "[Compound-19]", "values": [
      {"measurement": "Serum total cholesterol", "setting": "ICR male mice", "result": "95** mg/dl"}
    ]},
    {"smiles": "C/C(=C\\Cc1c(O)c(Cl)c(C)c(C=O)c1O)CC/C=C(\\C)[C@@H]1CC(=O)C(C)(C)O1", "note": "[ascofuranone]", "values": [
      {"measurement": "Serum cholesterol lowering", "setting": "rodents [1]", "result": "serum cholesterol-lowering effect"},
      {"measurement": "Anticancer effect", "setting": "rodents [5]", "result": "anticancer effect"},
      {"measurement": "Progression to renal failure", "setting": "hypertensive rat models", "result": "prevent hypertensive rat models from entering renal failure"}
    ]},
    {"smiles": "CC(/C=C/[C@@]1(C)[C@H](C)C=CC(=O)[C@@H]1C)=C\\Cc1c(O)c(Cl)c(C)c(C=O)c1O", "note": "[cylindrochlorin]", "values": [
      {"measurement": "Aromatase inhibition", "setting": "aromatase", "result": "strong inhibitory substance"},
      {"measurement": "Serum cholesterol lowering", "setting": "rodents [1]", "result": "stronger effect of lowering serum cholesterol"}
    ]}
  ]
}
